Like-named read-outs stand apart in the source and are kept apart here.
Tested on: RPMI8226 multiple myeloma (MM) human cell lines
Assay: Cytotoxic effect of CBD, THC and combinations on RPMI8226 cells
Type: cell-based
Conditions: for IC50: Homo sapiens; for survival of MM cells (in words): concentration dependent manner, FIG. 2; for survival of RPMIS MM cells: concentration of about 20 μM and higher
Experimental: This example examines the cytotoxic effect of CBD alone, THC alone and combinations of both compounds. The cytotoxic effect of CBD, THC and their combinations in different ratios such as CBD: THC 1:1; CBD: THC 5:1 and CBD: THC 1:5 were evaluated on RPMI8226 multiple myeloma (MM) human cell lines. Reference is now made to FIG. 2 which presents a graph of RPMIS MM cell line survival (%) vs. concentration (μM).

Row | Structure (SMILES) | IC50 (RPMI-8226, RPMI8226 (RPMIS) MM cells, read-out: dose that caused 50% of MM cell death) [µM] | survival of MM cells (in words) | survival of RPMIS MM cells | IC50 (RPMI-8226, read-out: dose that caused 50% of MM cell death) [µM]
1 | C=C(C)[C@@H]1CCC(C)=C[C@H]1c1c(O)cc(CCCCC)cc1O [CBD, cannabidiol] | 16 | decreased the survival | about 50% | –
2 | CCCCCc1cc(O)c2c(c1)OC(C)(C)[C@@H]1CCC(C)=C[C@@H]21 [THC, Tetrahydrocannabinol] | – | decreased the survival | about 50% | 22
